Reference: US7598382B2, “Aryl substituted imidazoquinolines” (Coley Pharmaceutical Group, Inc., priority 2002, dated 2009)

melting point	Structure (SMILES)
190 to 192 °C	CCCc1nc2c(N)nc3cc(/C=C/c4cccnc4)ccc3c2n1CC(C)C (hydrate or solvate) [Example 446, (E)-1-(2-Methylpropyl)-2-propyl-7-[2-(pyridin-3-yl)vinyl]-1H-imidazo[4,5-c]quinolin-4-amine]
125 to 128 °C	CCOCc1nc2c(N)nc3cc(-c4cccc(C(=O)N5CCOCC5)c4)ccc3c2n1CC1CCOCC1 (hydrate or solvate) [Example 477, {3-[4-Amino-2-ethoxymethyl-1-(tetrahydropyran-4-ylmethyl)-1H-imidazo[4,5-c]quinolin-7-yl]phenyl}morpholin-4-ylmethanone]
116 to 121 °C	CCOCc1nc2c(N)nc3cc(-c4cccnc4)ccc3c2n1CC1CCOCC1 (hydrate or solvate) [Example 479, 2-Ethoxymethyl-7-(pyridin-3-yl)-1-(tetrahydropyran-4-ylmethyl)-1H-imidazo[4,5-c]quinolin-4-amine]
229 to 230 °C	CCCCc1nc2c(N)nc3cc(-c4ccsc4)ccc3c2n1CC(C)C [Example 1, 2-Butyl-1-isobutyl-7-(thiophen-3-yl)-1H-imidazo[4,5-c]quinolin-4-amine]
> 250 °C	CCCCc1nc2c(N)nc3cc(-c4ccccc4)ccc3c2n1CC(C)C [Example 2, 2-Butyl-1-isobutyl-7-phenyl-1H-imidazo[4,5-c]quinolin-4-amine]
187 to 189 °C	CCCCc1nc2c(N)nc3cc(-c4ccc(OC)cc4OC)ccc3c2n1CC(C)C [Example 3, 2-Butyl-7-(2,4-dimethoxyphenyl)-1-isobutyl-1H-imidazo[4,5-c]quinolin-4-amine]
219 to 220 °C	CCCCc1nc2c(N)nc3cc(-c4ccc(C(C)(C)C)cc4)ccc3c2n1CC(C)C [Example 4, 2-Butyl-7-(4-tert-butylphenyl)-1-isobutyl-1H-imidazo[4,5-c]quinolin-4-amine]
194 to 197 °C	CCCCc1nc2c(N)nc3cc(-c4ccc(OCCC)cc4)ccc3c2n1CC(C)C [Example 5, 2-Butyl-1-isobutyl-7-(4-propoxyphenyl)-1H-imidazo[4,5-c]quinolin-4-amine]
174.5 to 176 °C	CCCCc1nc2c(N)nc3cc(-c4ccccc4OCCC)ccc3c2n1CC(C)C [Example 6, 2-Butyl-1-isobutyl-7-(2-propoxyphenyl)-1H-imidazo[4,5-c]quinolin-4-amine]
215 to 216 °C	CCCCc1nc2c(N)nc3cc(/C=C/c4ccccc4)ccc3c2n1CC(C)C [Example 7, 2-Butyl-1-isobutyl-7-[(E)-2-phenylethenyl]-1H-imidazo[4,5-c]quinolin-4-amine]
181 to 182 °C	CCCCc1nc2c(N)nc3cc(CCc4ccccc4)ccc3c2n1CC(C)C [Example 8, 2-Butyl-1-isobutyl-7-phenethyl-1H-imidazo[4,5-c]quinolin-4-amine]
187 to 189 °C	CCOCc1nc2c(N)nc3cc(-c4ccsc4)ccc3c2n1CC(C)C [Example 9, 2-Ethoxymethyl-1-isobutyl-7-(thiophen-3-yl)-1H-imidazo[4,5-c]quinolin-4-amine]
214 to 216 °C	CCCCc1nc2c(N)nc3cc(-c4ccccc4)ccc3c2n1CCCS(C)(=O)=O [Example 10, 2-Butyl-1-(3-methanesulfonylpropyl)-7-phenyl-1H-imidazo[4,5-c]quinolin-4-amine]
> 250 °C	CC(C)Cn1cnc2c(N)nc3ccc(-c4ccc(C(C)(C)C)cc4)cc3c21 [Example 11, 8-(4-tert-Butylphenyl)-1-isobutyl-1H-imidazo[4,5-c]quinolin-4-amine]
235 to 236 °C	CC(C)Cn1cnc2c(N)nc3ccc(-c4ccsc4)cc3c21 [Example 12, 1-Isobutyl-8-(thiophen-3-yl)-1H-imidazo[4,5-c]quinolin-4-amine]
223 to 227 °C	COc1ccc(-c2ccc3nc(N)c4ncn(CC(C)C)c4c3c2)c(OC)c1 [Example 13, 8-(2,4-Dimethoxyphenyl)-1-isobutyl-1H-imidazo[4,5-c]quinolin-4-amine]
233 to 235 °C	CCc1nc2c(N)nc3ccc(-c4ccccc4)cc3c2n1CC(C)C [Example 16, 2-Ethyl-1-isobutyl-8-phenyl-1H-imidazo[4,5-c]quinolin-4-amine]
> 250 °C	CCc1nc2c(N)nc3ccc(-c4cccnc4)cc3c2n1CC(C)C [Example 17, 2-Ethyl-1-isobutyl-8-(pyridin-3-yl)-1H-imidazo[4,5-c]quinolin-4-amine]
186 to 187 °C	CCCCn1c(COCC)nc2c(N)nc3ccc(-c4ccccc4)cc3c21 [Example 18, 1-Butyl-2-ethoxymethyl-8-phenyl-1H-imidazo[4,5-c]quinolin-4-amine]
220 to 222 °C	CCCCn1c(COCC)nc2c(N)nc3ccc(-c4cccnc4)cc3c21 [Example 19, 1-Butyl-2-ethoxymethyl-8-(pyridin-3-yl)-1H-imidazo[4,5-c]quinolin-4-amine]

melting point	Structure (SMILES)
140 to 141 °C	CCCOc1cccc(-c2ccc3c(c2)nc(N)c2nc(COCC)n(CC(C)C)c23)c1 [Example 106, 2-Ethoxymethyl-1-(2-methylpropyl)-7-(3-propoxyphenyl)-1H-imidazo[4,5-c]quinolin-4-amine]
209 to 210 °C	CCCOc1ccc(-c2ccc3c(c2)nc(N)c2nc(COCC)n(CC(C)C)c23)cc1 [Example 107, 2-Ethoxymethyl-1-(2-methylpropyl)-7-(4-propoxyphenyl)-1H-imidazo[4,5-c]quinolin-4-amine]
176.5 to 178 °C	CCOCc1nc2c(N)nc3cc(-c4ccccc4)ccc3c2n1CC(C)C [Example 108, 2-Ethoxymethyl-1-(2-methylpropyl)-7-phenyl-1H-imidazo[4,5-c]quinolin-4-amine]
168 to 169 °C	CCCOc1ccccc1-c1ccc2c(c1)nc(N)c1nc(COCC)n(CC(C)C)c12 [Example 109, 2-Ethoxymethyl-1-(2-methylpropyl)-7-(2-propoxyphenyl)-1H-imidazo[4,5-c]quinolin-4-amine]
211 to 212 °C	CCOCc1nc2c(N)nc3cc(-c4ccc(C#N)cc4)ccc3c2n1CC(C)C [Example 110, 4-(4-Amino-2-ethoxymethyl-1-(2-methylpropyl)-1H-imidazo[4,5-c]quinolin-7-yl)benzonitrile]
210 to 211 °C	CCOCc1nc2c(N)nc3cc(-c4cccc(C#N)c4)ccc3c2n1CC(C)C [Example 111, 3-(4-Amino-2-ethoxymethyl-1-(2-methylpropyl)-1H-imidazo[4,5-c]quinolin-7-yl)benzonitrile]
179.5 to 181.5 °C	CCOCc1nc2c(N)nc3cc(-c4cccnc4)ccc3c2n1CC(C)C [Example 113, 2-Ethoxymethyl-1-(2-methylpropyl)-7-(pyridin-3-yl)-1H-imidazo[4,5-c]quinolin-4-amine]
214.5 to 215.5 °C	CCOCc1nc2c(N)nc3cc(-c4ccc(N(C)C)cc4)ccc3c2n1CC(C)C [Example 114, 7-(4-Dimethylaminophenyl)-2-ethoxymethyl-1-(2-methylpropyl)-1H-imidazo[4,5-c]quinolin-4-amine]
211 to 212 °C	CCOCc1nc2c(N)nc3cc(-c4cncc(CO)c4)ccc3c2n1CC(C)C [Example 115, {5-[4-Amino-2-ethoxymethyl-1-(2-methylpropyl)-1H-imidazo[4,5-c]quinolin-7-yl]pyridin-3-yl}methanol]
211 to 213 °C	CCOCc1nc2c(N)nc3cc(-c4ccncc4)ccc3c2n1CC(C)C [Example 116, 2-Ethoxymethyl-1-(2-methylpropyl)-(7-pyridin-4-yl)-1H-imidazo[4,5-c]quinolin-4-amine]
175.5 to 178 °C	CCOCc1nc2c(N)nc3cc(CCc4ccc(C(F)(F)F)cc4)ccc3c2n1CC(C)C [Example 117, 2-Ethoxymethyl-1-(2-methylpropyl)-7-{2-[(trifluoromethyl)phenyl]ethyl}-1H-imidazo[4,5-c]quinolin-4-amine]
238 to 240 °C	CCc1ccc(-c2ccc3nc(N)c4ncn(CC(C)C)c4c3c2)cc1 [Example 118, 8-(4-Ethylphenyl)-1-(2-methylpropyl)-1H-imidazo[4,5-c]quinolin-4-amine]
204 to 205 °C	Cc1ccc(-c2ccc3nc(N)c4ncn(CC(C)C)c4c3c2)cc1C [Example 119, 8-(3,4-Dimethylphenyl)-1-(2-methylpropyl)-1H-imidazo[4,5-c]quinolin-4-amine]
217 to 218 °C	CC(=O)c1cccc(-c2ccc3nc(N)c4ncn(CC(C)C)c4c3c2)c1 [Example 120, 1-{3-[4-Amino-1-(2-methylpropyl)-1H-imidazo[4,5-c]quinolin-8-yl]phenyl}ethanone]
247 to 248 °C	CC(C)Cn1cnc2c(N)nc3ccc(-c4csc5ccccc45)cc3c21 [Example 121, 8-Benzo[b]thiophen-3-yl-1-(2-methylpropyl)-1H-imidazo[4,5-c]quinolin-4-amine]
228 to 230 °C	CC(C)Cn1cnc2c(N)nc3ccc(C=Cc4ccccc4)cc3c21 [Example 122, 1-(2-Methylpropyl)-8-styryl-1H-imidazo[4,5-c]quinolin-4-amine]
175 to 178 °C	CC(C)Cn1cnc2c(N)nc3ccc(CCc4ccccc4)cc3c21 [Example 123, 1-(2-Methylpropyl)-8-phenethyl-1H-imidazo[4,5-c]quinolin-4-amine]
203 to 205 °C	Cc1nc2c(N)nc3cc(-c4ccccc4)ccc3c2n1CCCS(C)(=O)=O [Example 124, 2-Methyl-1-(3-methanesulfonylpropyl)-7-phenyl-1H-imidazo[4,5-c]quinolin-4-amine]
204 to 205 °C	CCOCc1nc2c(N)nc3cc(-c4ccsc4)ccc3c2n1CC(C)(C)O [Example 125, 1-[4-Amino-2-ethoxymethyl-7-(thiophen-3-yl)-1H-imidazo[4,5-c]quinolin-1-yl]-2-methylpropan-2-ol]
197 to 199 °C	CCOCc1nc2c(N)nc3cc(-c4cccnc4)ccc3c2n1CC(C)(C)O [Example 126, 1-[4-Amino-2-ethoxymethyl-7-(pyridin-3-yl)-1H-imidazo[4,5-c]quinolin-1-yl]-2-methylpropan-2-ol]
